Laboratory results as given in patent publication US20240398817A1, “CARDIO- AND RENOSAFE ANTIDIABETIC THERAPY” (priority 2018, published 2024).

Test system: patients with type 2 diabetes at high vascular risk
Test: Cardiovascular and Renal Outcomes Trial: linagliptin 5 mg once daily vs placebo on top of standard of care
Format: in vivo
Conditions: for Hazard ratio for hospitalised heart failure: vs placebo
Procedure: The effect of linagliptin on cardiovascular risk in adult patients with type 2 diabetes mellitus and with increased CV risk evidenced by a history of established macrovascular or renal disease (e.g. as defined herein) was evaluated in a multi-center, multi-national, randomized, double-blind parallel group trial. The trial compared the risk of experiencing a major adverse cardiovascular event (MACE) between linagliptin and placebo when these were added to and used concomitantly with standard of care treatments for diabetes (HbA1c), cardiovascular risk factors and renal disease.
The primary endpoint in this trial was the time to first occurrence of three point (3P) MACE. A major adverse cardiac event was defined as a cardiovascular death or a nonfatal myocardial infarction (MI) or a nonfatal stroke. The statistical analysis plan tested for non-inferiority for the occurrence of (3P) MACE. […] The secondary endpoint was a renal composite, defined as renal death or sustained end stage renal disease or sustained decrease of 40% or more in eGFR.
Type 2 diabetes patient with insufficient glycemic control (naïve or pre-treated with any antidiabetic background medication, excluding treatment with GLP-1 receptor agonists, DPP-4inhibitors or SGLT-2 inhibitors if ≥consecutive 7 days, e.g. having HbA1c 6.5-10%), and high risk of cardiovascular events, e.g. defined by: • albuminuria (micro or macro) and previous macrovascular disease: e.g. defined according to Condition I as indicated below; • and/or • impaired renal function: e.g. as defined according to Condition II as indicated below;
Background and aims: People with type 2 diabetes (T2D) are at increased risk for hospitalization for heart failure (hHF), particularly in the setting of concomitant cardiovascular (CV) and/or kidney disease. […] Here we present analyses of HF outcomes with the DPP-4 inhibitor linagliptin (LINA) vs. placebo (PBO) from a Cardiovascular and Renal Outcomes Trial assessing cardiovascular safety and renal microvascular outcome in patients with type 2 diabetes at high vascular risk, a large CV outcomes trial that enrolled participants with T2D at high risk for hHF due to concomitant CV and/or chronic kidney disease. Materials and methods: People with T2D and concomitant CV and/or kidney disease were randomized to receive LINA 5 mg, or PBO once daily (1:1), on top of standard of care. All hHF, CV outcomes, and deaths were centrally adjudicated, with individual and composite HF-related outcomes analyses comparing LINA vs. placebo. Investigator-reported HF-related adverse events, whether or not confirmed by adjudication, were also analyzed. A Cox proportional hazards model adjusting for region and history of HF was used for analyses of first events. Recurrent hHF events were analyzed using a negative binomial model.
Methods: The present Cardiovascular and Renal Outcomes Trial randomized people with T2D and i) concomitant CV disease with UACR >30 mg/g or ii) prevalent CKD (i.e. GFR <45 ml/min/1.73m2 and/or UACR >200 mg/g) to receive the DPP-4 inhibitor linagliptin (5 mg) or placebo once daily in a double-blind fashion. The primary CV endpoint was 3P-MACE, with a key secondary kidney endpoint (adjudicated ESKD, renal death, or sustained ≥40% decrease in eGFR from baseline) and other renal outcomes (including albuminuria and eGFR slope) also assessed. Subgroups were assessed by baseline kidney function (eGFR ≥/<45 ml/min/1.73m2and eGFR ≥/<30, 45 or 60 ml/min/1.73m2).
Adults with type 2 diabetes, HbA1c 6.5-10.0% inclusive, and high CV risk were eligible for inclusion. […] Macrovascular disease eligibility criteria was based on documented and confirmed history of myocardial infarction, coronary artery disease, stroke, carotid artery disease, or peripheral artery disease. Participants with end-stage kidney disease (ESKD), defined as eGFR <15 or requiring maintenance dialysis, were excluded.

[1] = Metformin-dose: Not on metformin
[2] = Prevalent kidney disease (eGFR<60 mL/min/1.73 m^2 or macroalbuminuria UACR >300 mg/g) No
[3] = Prevalent kidney disease (eGFR<60 mL/min/1.73 m^2 or macroalbuminuria UACR >300 mg/g) Yes
[4] = Prevalent kidney disease (eGFR<60 or UACR >300 mg/g) No
[5] = Prevalent kidney disease (eGFR<60 or UACR >300 mg/g) Yes

CC#CCn1c(N2CCC[C@@H](N)C2)nc2c1c(=O)n(Cc1nc(C)c3ccccc3n1)c(=O)n2C [Linagliptin, 1-[(4-methyl-quinazolin-2-yl)methyl]-3-methyl-7-(2-butyn-1-yl)-8-(3-(R)-amino-piperidin-1-yl)-xanthine]
Hazard ratio for hospitalised heart failure (History of heart failure Yes): 0.88
3-point MACE: hazard ratio vs placebo (Insulin No): 0.88
3-point MACE: patients with event/patients analyzed (Insulin No): 139/1487
Key secondary kidney outcome: hazard ratio vs placebo (Insulin No): 1.08
Key secondary kidney outcome: patients with event/patients analyzed (Insulin No): 101/1487
Patients with event/patients analysed, hospitalised heart failure (Insulin No): 40/1487
Hazard ratio for hospitalised heart failure (Insulin No): 0.62
3-point MACE: hazard ratio vs placebo (Insulin Yes): 1.10
3-point MACE: patients with event/patients analyzed (Insulin Yes): 295/2007
Key secondary kidney outcome: hazard ratio vs placebo (Insulin Yes): 1.01
Key secondary kidney outcome: patients with event/patients analyzed (Insulin Yes): 226/2007
Patients with event/patients analysed, hospitalised heart failure (Insulin Yes): 169/2007
Hazard ratio for hospitalised heart failure (Insulin Yes): 1.00
Patients with event/patients analysed, hospitalised heart failure (Ischemic heart disease No): 66/1465
Hazard ratio for hospitalised heart failure (Ischemic heart disease No): 1.04
Patients with event/patients analysed, hospitalised heart failure (Ischemic heart disease Yes): 143/2029
Hazard ratio for hospitalised heart failure (Ischemic heart disease Yes): 0.85
3-point MACE: hazard ratio vs placebo (Lipid lowering drugs No): 0.90
3-point MACE: patients with event/patients analyzed (Lipid lowering drugs No): 95/871
Key secondary kidney outcome: hazard ratio vs placebo (Lipid lowering drugs No): 1.13
Key secondary kidney outcome: patients with event/patients analyzed (Lipid lowering drugs No): 101/871
Patients with event/patients analysed, hospitalised heart failure (Lipid lowering drugs No): 34/871
Hazard ratio for hospitalised heart failure (Lipid lowering drugs No): 1.01
3-point MACE: hazard ratio vs placebo (Lipid lowering drugs Yes): 1.06
3-point MACE: patients with event/patients analyzed (Lipid lowering drugs Yes): 339/2623
Key secondary kidney outcome: hazard ratio vs placebo (Lipid lowering drugs Yes): 1.00
Key secondary kidney outcome: patients with event/patients analyzed (Lipid lowering drugs Yes): 226/2623
Patients with event/patients analysed, hospitalised heart failure (Lipid lowering drugs Yes): 175/2623
Hazard ratio for hospitalised heart failure (Lipid lowering drugs Yes): 0.88
Patients with event/patients analysed, hospitalised heart failure (Loop diuretics No): 80/2530
Hazard ratio for hospitalised heart failure (Loop diuretics No): 0.97
Patients with event/patients analysed, hospitalised heart failure (Loop diuretics Yes): 129/964
Hazard ratio for hospitalised heart failure (Loop diuretics Yes): 0.90
3-point MACE: hazard ratio vs placebo (Metformin No): 1.02
3-point MACE: patients with event/patients analyzed (Metformin No): 242/1613
Key secondary kidney outcome: hazard ratio vs placebo (Metformin No): 0.99
Key secondary kidney outcome: patients with event/patients analyzed (Metformin No): 212/1613
Patients with event/patients analysed, hospitalised heart failure (Metformin No): 138/1613
Hazard ratio for hospitalised heart failure (Metformin No): 0.97
3-point MACE: hazard ratio vs placebo (Metformin Yes): 1.02
3-point MACE: patients with event/patients analyzed (Metformin Yes): 192/1881
Key secondary kidney outcome: hazard ratio vs placebo (Metformin Yes): 1.11
Key secondary kidney outcome: patients with event/patients analyzed (Metformin Yes): 115/1881
Patients with event/patients analysed, hospitalised heart failure (Metformin Yes): 71/1881
Hazard ratio for hospitalised heart failure (Metformin Yes): 0.79
3-point MACE: hazard ratio vs placebo (Metformin-dose >1500 mg): 1.02
3-point MACE: patients with event/patients analyzed (Metformin-dose >1500 mg): 111/1094
Key secondary kidney outcome: hazard ratio vs placebo (Metformin-dose >1500 mg): 0.99
Key secondary kidney outcome: patients with event/patients analyzed (Metformin-dose >1500 mg): 62/1094
Patients with event/patients analysed, hospitalised heart failure (Metformin-dose >1500 mg): 49/1094
Hazard ratio for hospitalised heart failure (Metformin-dose >1500 mg): 0.88
3-point MACE: hazard ratio vs placebo (Metformin-dose ≤1500 mg): 1.02
3-point MACE: patients with event/patients analyzed (Metformin-dose ≤1500 mg): 81/787
Key secondary kidney outcome: hazard ratio vs placebo (Metformin-dose ≤1500 mg): 1.29
Key secondary kidney outcome: patients with event/patients analyzed (Metformin-dose ≤1500 mg): 53/787
Patients with event/patients analysed, hospitalised heart failure (Metformin-dose ≤1500 mg): 22/787
Hazard ratio for hospitalised heart failure (Metformin-dose ≤1500 mg): 0.65
3-point MACE: hazard ratio vs placebo [1]: 1.02
3-point MACE: patients with event/patients analyzed [1]: 242/1613
Key secondary kidney outcome: hazard ratio vs placebo [1]: 0.99
Key secondary kidney outcome: patients with event/patients analyzed [1]: 212/1613
Patients with event/patients analysed, hospitalised heart failure [1]: 138/1613
Hazard ratio for hospitalised heart failure [1]: 0.97
Patients with event/patients analysed, hospitalised heart failure [2]: 18/887
Hazard ratio for hospitalised heart failure [2]: 0.69
Patients with event/patients analysed, hospitalised heart failure [3]: 191/2606
Hazard ratio for hospitalised heart failure [3]: 0.91
3-point MACE: hazard ratio vs placebo [4]: 0.88
3-point MACE: patients with event/patients analyzed [4]: 60/887
Key secondary kidney outcome: hazard ratio vs placebo [4]: 1.36
Key secondary kidney outcome: patients with event/patients analyzed [4]: 19/887
3-point MACE: hazard ratio vs placebo [5]: 1.04
3-point MACE: patients with event/patients analyzed [5]: 374/2606
Key secondary kidney outcome: hazard ratio vs placebo [5]: 0.99
Key secondary kidney outcome: patients with event/patients analyzed [5]: 308/2606
3-point MACE: hazard ratio vs placebo (Race Asian): 1.09
3-point MACE: patients with event/patients analyzed (Race Asian): 40/307
Key secondary kidney outcome: hazard ratio vs placebo (Race Asian): 0.90
Key secondary kidney outcome: patients with event/patients analyzed (Race Asian): 32/307
Patients with event/patients analysed, hospitalised heart failure (Race Asian): 14/307
3-point MACE: hazard ratio vs placebo (Race Black/African-American): 1.30
3-point MACE: patients with event/patients analyzed (Race Black/African-American): 31/194
Key secondary kidney outcome: hazard ratio vs placebo (Race Black/African-American): 1.31
Key secondary kidney outcome: patients with event/patients analyzed (Race Black/African-American): 35/194
Patients with event/patients analysed, hospitalised heart failure (Race Black/African-American): 15/194
